Measured values: patent publication US6960470B1 (priority 1998, dated 2005)

Legend:
[1] = system: GABAA receptor; assay type: cell-based
[2] = system: AMPA (glutamate subtype) receptor; assay: Whole-cell patch-clamp, evoked inward synaptic current at -60 mV (glutamate currents); assay type: cell-based; conditions: 2 μM NBQX; whole-cell patch-clamped neurons
Procedure: Data were prepared as graphs of the effect of agents on the GABAA receptor-mediated transmission in the mutant and wt cells using whole-cell patch-clamping. The data included the evoked synaptic response ([…]) from whole-cell patch-clamped neurons. […] The evoked synaptic responses (averaged up to 15 each) recorded at holding potentials of 0 mV and −60 mV with the stimulating electrode placed in stratum radiatum at site 1, ˜50μm from the recording electrode at site 2, ˜250 μm from the recording electrode and at site two with the stimulus intensity increased ˜3-fold. Graphs were prepared of examples of averaged (up to 15 each) traces from patch-clamp whole-cell recordings-in wt and Δ9 mutation at […] (glutamate currents) and at 0 mV (GABAA currents). The graphs included peak amplitude of response ratios (measured at holding potentials of −60 mV and 0 mV, respectively) from cells in individual slices (n=9 slices each).

| Compound | block of outward current recorded at 0 mV [1] | block of inward current at holding potential of −60 mV [2] | block of outward current (di-synaptic inhibition) [1] |
| --- | --- | --- | --- |
| picrotoxin | completely blocked | – | – |
| NS(=O)(=O)c1cccc2c1c([N+](=O)[O-])cc1nc(O)c(O)nc12 [NBQX] | – | completely blocked | blocked some of the outward current |
